Structures are written as SMILES. Where two headings read alike, the source gives them in different places.

Some targets named below: RAF1 (Homo sapiens, UniProt P04049); PAK4 (Homo sapiens, UniProt O96013); CSNK1D (Homo sapiens, UniProt P48730).
Common to all, as to assay: biochemical
Parameters in all cases: DiscoveRx KINOMEscan active site-directed competition binding; percent of control kinase bound to immobilised ligand

The target of another assay is T1, MAPKAPK5 (Homo sapiens, UniProt Q8IW41).
T1 sequence (Q8IW41 1-473): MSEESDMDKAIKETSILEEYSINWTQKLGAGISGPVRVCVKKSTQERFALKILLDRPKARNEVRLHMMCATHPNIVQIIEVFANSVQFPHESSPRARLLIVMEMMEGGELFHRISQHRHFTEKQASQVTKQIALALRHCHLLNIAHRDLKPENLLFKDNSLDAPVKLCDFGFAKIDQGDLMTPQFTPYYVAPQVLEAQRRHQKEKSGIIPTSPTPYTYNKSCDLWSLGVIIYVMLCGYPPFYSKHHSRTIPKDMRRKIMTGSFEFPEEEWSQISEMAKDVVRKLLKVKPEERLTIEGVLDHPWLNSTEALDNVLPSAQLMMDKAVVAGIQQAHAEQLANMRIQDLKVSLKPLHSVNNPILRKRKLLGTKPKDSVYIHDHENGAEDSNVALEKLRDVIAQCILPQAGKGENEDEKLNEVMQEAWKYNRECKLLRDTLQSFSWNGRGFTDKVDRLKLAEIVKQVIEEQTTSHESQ

For another assay, the target named is T2, MAP3K15 (Homo sapiens, UniProt Q6ZN16).
T2 sequence (Q6ZN16 1-1313): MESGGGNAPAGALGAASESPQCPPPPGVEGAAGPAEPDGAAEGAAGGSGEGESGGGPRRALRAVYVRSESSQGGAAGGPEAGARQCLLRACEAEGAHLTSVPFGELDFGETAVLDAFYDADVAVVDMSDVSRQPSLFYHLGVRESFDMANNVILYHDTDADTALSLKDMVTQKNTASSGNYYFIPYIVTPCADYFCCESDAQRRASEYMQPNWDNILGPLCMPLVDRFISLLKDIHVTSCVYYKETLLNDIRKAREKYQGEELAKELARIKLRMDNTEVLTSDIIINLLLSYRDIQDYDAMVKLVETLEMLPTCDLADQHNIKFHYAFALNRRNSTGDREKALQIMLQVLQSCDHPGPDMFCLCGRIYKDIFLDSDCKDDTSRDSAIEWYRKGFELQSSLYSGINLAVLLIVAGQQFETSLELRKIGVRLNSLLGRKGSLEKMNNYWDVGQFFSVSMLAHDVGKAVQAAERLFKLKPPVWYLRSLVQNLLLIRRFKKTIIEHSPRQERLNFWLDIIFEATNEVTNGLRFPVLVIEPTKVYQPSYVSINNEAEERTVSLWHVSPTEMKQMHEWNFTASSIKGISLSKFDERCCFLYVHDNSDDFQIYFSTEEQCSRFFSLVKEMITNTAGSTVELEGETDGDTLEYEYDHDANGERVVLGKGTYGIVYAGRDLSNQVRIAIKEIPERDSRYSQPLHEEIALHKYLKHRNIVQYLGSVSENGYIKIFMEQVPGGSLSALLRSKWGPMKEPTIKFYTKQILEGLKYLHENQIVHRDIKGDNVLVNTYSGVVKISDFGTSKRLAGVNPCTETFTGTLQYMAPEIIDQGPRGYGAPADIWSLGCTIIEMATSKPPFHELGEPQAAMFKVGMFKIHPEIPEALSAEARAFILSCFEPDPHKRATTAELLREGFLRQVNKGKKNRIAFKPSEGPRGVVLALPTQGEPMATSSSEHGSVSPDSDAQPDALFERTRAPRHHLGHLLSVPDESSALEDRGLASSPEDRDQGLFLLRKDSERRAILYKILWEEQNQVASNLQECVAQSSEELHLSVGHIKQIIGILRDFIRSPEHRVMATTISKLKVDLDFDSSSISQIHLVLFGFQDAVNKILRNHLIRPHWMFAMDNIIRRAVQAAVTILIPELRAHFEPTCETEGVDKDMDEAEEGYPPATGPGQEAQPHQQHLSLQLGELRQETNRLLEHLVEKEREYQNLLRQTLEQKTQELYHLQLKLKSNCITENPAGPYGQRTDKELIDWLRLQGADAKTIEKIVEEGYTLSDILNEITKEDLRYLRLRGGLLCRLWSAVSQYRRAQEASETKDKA

In another assay the target is T3, GRK3 (Homo sapiens, UniProt P35626).
T3 sequence (P35626 1-688): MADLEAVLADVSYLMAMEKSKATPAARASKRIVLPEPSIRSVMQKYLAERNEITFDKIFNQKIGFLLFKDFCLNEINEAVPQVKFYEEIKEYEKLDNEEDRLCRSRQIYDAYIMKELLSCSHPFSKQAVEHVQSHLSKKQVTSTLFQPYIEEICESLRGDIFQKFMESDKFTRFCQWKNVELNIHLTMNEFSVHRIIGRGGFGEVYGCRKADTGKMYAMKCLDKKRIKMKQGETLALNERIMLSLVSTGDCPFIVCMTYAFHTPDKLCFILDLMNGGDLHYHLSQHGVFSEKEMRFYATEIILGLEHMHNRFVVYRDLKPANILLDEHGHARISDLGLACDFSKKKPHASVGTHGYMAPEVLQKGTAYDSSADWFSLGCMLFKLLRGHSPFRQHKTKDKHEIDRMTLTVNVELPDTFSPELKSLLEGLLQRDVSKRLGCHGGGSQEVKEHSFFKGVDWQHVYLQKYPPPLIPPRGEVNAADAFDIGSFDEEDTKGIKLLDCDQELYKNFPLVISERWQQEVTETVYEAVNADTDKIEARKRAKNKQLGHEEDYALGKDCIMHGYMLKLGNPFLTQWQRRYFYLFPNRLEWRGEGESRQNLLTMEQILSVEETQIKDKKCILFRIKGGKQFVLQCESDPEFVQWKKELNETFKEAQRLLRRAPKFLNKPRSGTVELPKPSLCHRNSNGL

Where [1] appears, read: read-out: Niraparib (MK-4827) / %Ctrl @ 10000nM.
Where [2] appears, read: read-out: Talazoparib (BMN 673) / %Ctrl @ 10000nM.
The mark [3] stands for this setting: read-out: Rucaparib / %Ctrl @ 10000nM, binding competition, % of control.
Setting [4] is: read-out: Olaparib / %Ctrl @ 10000nM.

Chain of RAF1 (P04049 whole entry): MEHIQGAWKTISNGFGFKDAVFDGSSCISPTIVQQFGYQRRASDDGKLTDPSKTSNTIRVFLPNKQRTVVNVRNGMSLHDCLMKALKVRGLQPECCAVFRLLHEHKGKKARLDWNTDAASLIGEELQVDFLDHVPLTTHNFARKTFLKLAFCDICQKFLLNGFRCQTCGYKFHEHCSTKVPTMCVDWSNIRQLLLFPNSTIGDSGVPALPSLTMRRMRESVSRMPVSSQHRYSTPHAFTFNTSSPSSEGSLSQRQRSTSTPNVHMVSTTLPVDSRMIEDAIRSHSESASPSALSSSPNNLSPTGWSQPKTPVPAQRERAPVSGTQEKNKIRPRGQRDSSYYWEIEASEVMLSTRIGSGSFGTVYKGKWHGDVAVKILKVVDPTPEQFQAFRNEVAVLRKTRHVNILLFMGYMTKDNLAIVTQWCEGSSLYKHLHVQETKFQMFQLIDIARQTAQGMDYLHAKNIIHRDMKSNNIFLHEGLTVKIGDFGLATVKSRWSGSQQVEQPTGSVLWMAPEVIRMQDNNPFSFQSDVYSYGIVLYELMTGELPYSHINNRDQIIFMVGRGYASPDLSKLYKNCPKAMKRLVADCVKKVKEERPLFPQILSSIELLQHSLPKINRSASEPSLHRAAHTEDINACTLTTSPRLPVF
Chain of PAK4 (O96013 whole entry): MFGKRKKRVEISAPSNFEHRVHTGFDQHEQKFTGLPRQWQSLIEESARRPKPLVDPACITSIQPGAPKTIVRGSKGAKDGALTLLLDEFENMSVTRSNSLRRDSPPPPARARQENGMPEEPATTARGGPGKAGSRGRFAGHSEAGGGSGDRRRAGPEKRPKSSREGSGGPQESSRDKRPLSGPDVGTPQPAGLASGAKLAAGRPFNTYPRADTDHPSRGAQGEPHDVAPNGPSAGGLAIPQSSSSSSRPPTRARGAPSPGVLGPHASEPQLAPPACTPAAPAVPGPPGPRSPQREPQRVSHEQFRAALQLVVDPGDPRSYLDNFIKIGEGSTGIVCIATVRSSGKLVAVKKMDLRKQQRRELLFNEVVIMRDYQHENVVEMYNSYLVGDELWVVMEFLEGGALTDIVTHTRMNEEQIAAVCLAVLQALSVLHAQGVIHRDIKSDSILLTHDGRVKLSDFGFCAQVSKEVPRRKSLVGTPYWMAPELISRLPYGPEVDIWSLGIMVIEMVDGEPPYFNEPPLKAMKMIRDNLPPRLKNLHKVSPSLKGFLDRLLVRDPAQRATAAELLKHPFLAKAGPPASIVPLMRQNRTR
Chain of CSNK1D (P48730 whole entry): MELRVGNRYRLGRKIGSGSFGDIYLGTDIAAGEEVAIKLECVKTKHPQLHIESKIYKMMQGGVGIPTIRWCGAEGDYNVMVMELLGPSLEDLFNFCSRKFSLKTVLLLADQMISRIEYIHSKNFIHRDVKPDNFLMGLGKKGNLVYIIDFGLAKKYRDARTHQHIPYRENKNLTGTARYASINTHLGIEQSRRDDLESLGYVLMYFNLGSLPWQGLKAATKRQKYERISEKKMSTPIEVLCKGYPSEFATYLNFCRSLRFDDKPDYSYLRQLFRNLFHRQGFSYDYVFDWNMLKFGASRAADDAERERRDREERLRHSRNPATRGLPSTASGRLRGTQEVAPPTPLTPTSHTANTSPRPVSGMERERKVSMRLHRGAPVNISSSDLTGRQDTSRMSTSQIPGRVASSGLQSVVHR

Regarding `NC(=O)c1cccc2cn(-c3ccc([C@@H]4CCCNC4)cc3)nc12` [Niraparib], the percent of control binding at 10 µM stood at 93% at RAF1 (setting [1]); 86% at MAPKAPK5 (setting [1]); 64% at MAP3K15 (setting [1]); 88% on PAK4 (setting [1]); 95% at GRK3 (setting [1]); 57% on CSNK1D (setting [1]).
As to `Cn1ncnc1[C@H]1c2n[nH]c(=O)c3cc(F)cc(c23)N[C@@H]1c1ccc(F)cc1` [Talazoparib], the percent of control binding at 10 µM at RAF1 (setting [2]) worked out at 90%; on MAPKAPK5 (setting [2]), 93%; at MAP3K15 (setting [2]), 100%; at PAK4 (setting [2]) it was 89%; at GRK3 (setting [2]), 81%; on CSNK1D (setting [2]), 100%.
In the case of `CNCc1ccc(-c2[nH]c3cc(F)cc4c3c2CCNC4=O)cc1` [Rucaparib], the percent of control binding at 10 µM turned out to be 99% on RAF1 (setting [3]); 88% at MAPKAPK5 (setting [3]); 73% on MAP3K15 (setting [3]); 80% on PAK4 (setting [3]); 90% on GRK3 (setting [3]); 63% on CSNK1D (setting [3]).
Turning to `O=C(c1cc(Cc2n[nH]c(=O)c3ccccc23)ccc1F)N1CCN(C(=O)C2CC2)CC1` [Olaparib], the percent of control binding at 10 µM on RAF1 (setting [4]) was 89%; at MAPKAPK5 (setting [4]) it was 87%; on MAP3K15 (setting [4]), 100%; on PAK4 (setting [4]) it was 100%; on GRK3 (setting [4]) it was 82%; at CSNK1D (setting [4]) it was 96%.

The values are drawn from paper PMC7026418, “The kinase polypharmacology landscape of clinical PARP inhibitors” (Scientific Reports, 2020).
